Source: ChEMBL document CHEMBL5614369, “Design, synthesis and biological evaluation of Nrf2 modulators for the treatment of glioblastoma multiforme” (Bioorg Med Chem, 2024)
Calls of active or inactive are those of the source. The calls are words filed in the database; no cut-off is given here.

What was measured:
U-87 MG [1] = experiment: Antitumor activity against human U87 cells assessed as residual cell viability at 100 uM incubated for 48 hrs by CCK-8 assay relative to control; format: functional, U-87MG ATCC
U-87 MG [2] = experiment: Antitumor activity against human U87 cells assessed as reduction in cell viability incubated for 48 hrs by CCK-8 assay; format: functional, cell-based, U-87MG ATCC
U-87 MG [3] = experiment: Anti-tumor activity against human U87 cells assessed as reduction in cell proliferation by measuring reduction in green fluorescence intensity at 50 to 100 uM incubated for 48 hrs by Calcein AM dye based fluorescence microscopy; format: functional; details: U-87MG ATCC, dose 50-100 µM
U-87 MG [4] = experiment: Cytotoxicity against human U87 cells assessed as reduction in cell count at 12.5 to 200 uM incubated for 48 hrs by crystal violet staining based microscopic analysis; format: functional; details: U-87MG ATCC, dose 12.5-200 µM

Row | SMILES | Activity (U-87 MG [1]) | IC50 (U-87 MG [2]) | Activity (U-87 MG [2]; U-87MG ATCC) | Activity (U-87 MG [3]) | Activity (U-87 MG [4])
1 | Oc1cc(O)cc(/C=C/c2ccccc2)c1 [PINOSYLVIN] | 90% | 89 µM | Dose-Dependent Effect | Active | Active
2 | Cn1nnc2c(C(N)=O)ncn2c1=O [TEMOZOLOMIDE] | 47% | – | – | – | –
